Source: patent US7452904B2, “1-alkyl-1-azoniabicyclo' 2.2.2 octane carbamate derivatives and their use as muscarinic receptor antagonists” (Chiesi Farmaceutici S.p.A., priority 2001, dated 2008)

How the values were obtained:
[1] = target: T1, human M2 receptors (Homo sapiens, UniProt P08172); test: Binding test to human M2 muscarinic receptor ([3H]-NMS displacement), reported as M2/M3 selectivity; conditions: ratio of Ki at cloned human M2 versus M3 receptors; ratios greater than 1 indicate M3 selective activity
T1 construct: expressed in transfected cells; host or cells: CHO-K1
T1 sequence (P08172 1-466): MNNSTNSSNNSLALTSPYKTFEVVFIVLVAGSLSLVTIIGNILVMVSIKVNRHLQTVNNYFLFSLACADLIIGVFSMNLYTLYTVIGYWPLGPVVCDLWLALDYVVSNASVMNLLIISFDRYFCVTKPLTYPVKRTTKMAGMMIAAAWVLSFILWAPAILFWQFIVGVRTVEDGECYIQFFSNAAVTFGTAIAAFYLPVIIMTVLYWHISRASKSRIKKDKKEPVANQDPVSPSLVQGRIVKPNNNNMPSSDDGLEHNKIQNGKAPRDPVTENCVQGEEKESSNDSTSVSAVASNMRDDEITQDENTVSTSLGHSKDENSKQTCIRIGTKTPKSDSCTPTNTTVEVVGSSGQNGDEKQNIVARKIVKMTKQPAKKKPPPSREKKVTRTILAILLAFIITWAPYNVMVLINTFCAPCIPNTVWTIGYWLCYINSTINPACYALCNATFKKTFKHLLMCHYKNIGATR
Procedure: (§1) Binding Test to Human M2 and M3 Muscarinic Receptors
(§2) Membranes from CHO—K1 cells transfected with human M2 or M3 receptors were used. The summarised experimental procedure for both receptors was the following: cell membranes (15-20 μg) were incubated with [^3H]-NMS (0.3-0.5 nM) for 60 min at 25° C., in presence or absence of the antagonists. Incubation was carried out in 96 wells polystyrene microplates in a total incubation volume of 0.2 mL of PBS pH 7.4. Non specific binding was determined in parallel assays in presence of atropine (5 μM). Samples were filtered through type GF/C glass fibre, preincubated with PEI 0.3%. Filters were washed 3-4 times with 50 mM Tris-HCl, 0.9% NaCl, pH 7.4 at 4° C., and dried at 50° C. for 45 min. Filter bound radioactivity was quantified by liquid scintillation counting.
(§3) For the calculation of the inhibition constant (Ki), displacement curves were analysed by non-linear regression (GraphPad Prism). Dissociation constant (Kd) of [^3H]-NMS for each receptor was obtained through the saturation curves obtained in the same conditions as the experiments carried out with the corresponding antagonists.

[2] = target: T2, human M3 receptors (Homo sapiens, UniProt P20309); test: Binding test to human M3 muscarinic receptor ([3H]-NMS displacement); conditions: membranes from CHO-K1 cells transfected with human M3 receptor; [3H]-NMS 0.3-0.5 nM, 60 min, 25° C.; mean of two independent experiments, each in duplicate
T2 construct: expressed in transfected cells; host or cells: CHO-K1
Procedure: as §1, §2, §3

T2 sequence (P20309 whole entry): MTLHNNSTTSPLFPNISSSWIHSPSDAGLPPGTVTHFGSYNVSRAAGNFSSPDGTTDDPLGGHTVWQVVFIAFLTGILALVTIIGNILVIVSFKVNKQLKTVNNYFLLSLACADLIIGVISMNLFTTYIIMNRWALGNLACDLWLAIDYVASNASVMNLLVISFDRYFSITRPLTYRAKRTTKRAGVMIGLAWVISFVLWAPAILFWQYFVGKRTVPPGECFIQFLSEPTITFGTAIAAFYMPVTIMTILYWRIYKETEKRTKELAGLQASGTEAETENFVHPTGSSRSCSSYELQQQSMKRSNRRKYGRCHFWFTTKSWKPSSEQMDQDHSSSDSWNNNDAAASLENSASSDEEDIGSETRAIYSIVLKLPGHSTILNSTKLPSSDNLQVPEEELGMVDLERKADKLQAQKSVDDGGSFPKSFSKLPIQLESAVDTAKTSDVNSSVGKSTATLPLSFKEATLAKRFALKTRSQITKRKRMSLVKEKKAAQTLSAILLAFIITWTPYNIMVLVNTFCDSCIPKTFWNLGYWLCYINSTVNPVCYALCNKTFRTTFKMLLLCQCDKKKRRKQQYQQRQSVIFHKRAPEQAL

## O=C(O[C@H]1C[N+]2(CCCOc3ccccc3)CCC1CC2)N(Cc1ccc(F)cc1)c1ccccc1.[Br-] [Ex. 11, (R)-3-[(4-Fluorobenzyl)phenylcarbamoyloxy]-1-(3-phenoxypropyl)-1-azoniabicyclo[2.2.2]octane; bromide]
[1]
  M2/M3 (ratio): 80 ratio
[2]
  Ki: 0.34 nM

## O=C(O[C@H]1C[N+]2(CCSc3ccccc3)CCC1CC2)N(Cc1cc(F)c(F)c(F)c1)c1ccccc1F.[Cl-] [Ex. 50, (R)-3-[(2-Fluorophenyl)-(3,4,5-trifluorobenzyl)carbamoyloxy]-1-(2-phenylsulfanylethyl)-1-azoniabicyclo[2.2.2]octane; chloride]
[1]
  M2/M3 (ratio): 345 ratio
[2]
  Ki: 0.06 nM

## O=C(C[N+]12CCC(CC1)[C@@H](OC(=O)N(Cc1ccsc1)c1cccc(F)c1)C2)c1ccccc1.[Br-] [Ex. 69, (R)-3-[(3-Fluorophenyl)thiophen-3-ylmethylcarbamoyloxy]-1(2-oxo-2-phenylethyl)-1-azoniabicyclo[2.2.2]octane; bromide]
[1]
  M2/M3 (ratio): 32 ratio
[2]
  Ki: 0.02 nM

## Cl.O=C(O[C@H]1CN2CCC1CC2)N(Cc1ccc(Cl)s1)c1cccc(F)c1 [Int. 29, (R)-(5-Chlorothiophen-2-ylmethyl)-(3-fluorophenyl)carbamic acid 1-azabicyclo[2.2.2]oct-3-yl ester; hydrochloride]
[1]
  M2/M3 (ratio): 105 ratio
[2]
  Ki: 0.02 nM

## Cc1cccc(N(Cc2ccsc2)C(=O)O[C@H]2CN3CCC2CC3)c1.Cl [Int. 32, (R)-Thiophen-3-ylmethyl-m-tolylcarbamic acid 1-azabicyclo[2.2.2]oct-3-yl ester; hydrochloride]
[1]
  M2/M3 (ratio): 23 ratio
[2]
  Ki: 0.15 nM

## O=C(O[C@H]1CN2CCC1CC2)N1CCc2ccccc2[C@@H]1c1ccccc1 [SOLIFENACIN, solifenacin, reference compound]
[1]
  M2/M3 (ratio): 10 ratio
[2]
  Ki: 8.3 nM
